In patent publication US20230105212A1, “BIPHENYL DERIVATIVE INHIBITOR, PREPARATION METHOD THEREFOR AND USE THEREOF” (SHANGHAI HANSOH BIOMEDICAL CO., LTD., priority 2020, published 2023) one finds Emax and IC50 data, which are given here for 14 compounds.

Assay [1] addresses T1, PD-L1 protein on the surface of MC38-hPDL1 tumor cells (Homo sapiens, UniProt Q9NZQ7).
T1 construct: expressed in transfected cells; host or cells: MC38-hPDL1 (mouse colon cancer cells)
The assay is described as follows: Induction of endocytosis of PD-L1 on the surface of tumor cells (flow cytometry). The assay is classed as cell-based. As to conditions: 16 hours incubation; for Emax: MC38-hPDL1 cells, read-out: MC38 maximum endocytosis rate; for pIC50: inducing endocytosis of PD-L1, MC38-hPDL1 cells, read-out: MC38 IC50. The text has this: Test Embodiment 2. Test of the Activity of Compounds of the Present Disclosure on Inducing the Endocytosis of PD-L1 Protein on the Surface of Tumor Cells
Experimental purpose: The purpose of this test embodiment was to test the activity of the compound on inducing the endocytosis of PD-L1 on the surface of tumor cells.
Experimental method: In order to test the activity of the compound on inducing the endocytosis of PD-L1, in this experiment, the activity of the compound on inducing the endocytosis of PD-L1 was tested by detecting the change degree of PD-L1 on the tumor cell surface with fluorescently labeled anti-PD-L1 antibody, and the IC50 of activity of the compound on inducing the endocytosis of PD-L1 was obtained.
The mouse colon cancer cells MC38-hPDL1 with high expression of hPD-L1 were collected, and adjusted to a suitable density and plated in a 24-well plate, and placed in a 37° C., 5% CO2 incubator to adhere overnight. Compounds were prepared into different concentrations by medium and added to a 24-well plate, and a vehicle control well was set up. After the cells were incubated in a 37° C., 5% CO2 incubator for 16 hours, the 24-well plate was taken out, and MC38-hPDL1 cells with different treatments in the plate were collected. After the cells were washed once with FACS buffer (PBS containing 0.5% BSA), and the cells were prepared to an appropriate density with FACS buffer. PE Mouse Anti-Human CD274 antibody (BD Pharmingen #557924) was added, and the cells were shaken at room temperature and incubated for 30 minutes without light, then the cells were washed twice with FACS buffer, resuspended in 100 μL of PBS, and a flow cytometer was used to detect the fluorescent signal on the cell surface, and the isotype control was set as a negative control.
The endocytosis rate of the compounds was calculated from the fluorescence signals of different treatment groups, and the compound concentration and endocytosis rate were fitted by nonlinear regression using GraphPad Prism software, and IC50 values were obtained, as shown in Table 2.

The target of another assay is T2, human PD-1/PD-L1 binding (Homo sapiens, UniProt Q9NZQ7).
T2 construct: PD-L1-His protein (19 to 238 amino acids) (Abcam #ab167713); purchased Abcam (PD-L1-His); R&D (PD-1-Fc) ab167713; 1086-PD
Kind of assay: Inhibition of human PD-1/PD-L1 binding (TR-FRET/HTRF). As to conditions: TR-FRET, PD-L1-His and PD-1-Fc; read-out: PD-1/PD-L1 binding IC50. From the text:
Test Embodiment 1: Test of Inhibitory Effect of the Compounds of the Present Disclosure on Human PD-1/PD-L1 Binding
Experimental purpose: The purpose of this test embodiment was to measure the inhibitory activity of the compounds on human PD-1/PD-L1 binding.
Experimental reagents: Binding Domain diluent buffer was purchased from Cisbio Company, Cat. No.: 62DLBDDF; MAb Anti-6HIS Eu cryptate Gold was purchased from Cisbio Company with the article number of 61HI2KLA; PAb Anti Human IgG-XL665 was purchased from Cisbio Company with the article number of 61HFCXLB; PD-L1-His protein was purchased from Abcam Company with the article number of ab167713; PD-1-Fc protein was purchased from R&D Company with the article number of 1086-PD; Detection buffer was purchased from Cisbio Company with the article number of 62SDBRDD; 384-well plate was purchased from PerkinElmer Company with the article number of 6007290.
Experimental method: In order to test the inhibitory activity of the compounds on human PD-1/PD-L1 binding, the method of time-resolved fluorescence resonance energy transfer (TR-FRET) was used in this experiment to test the inhibition of the compounds on human PD-1/PD-L1 binding, and the half inhibitory concentration IC50 of inhibitory activity of the compounds on human PD-1/PD-L1 binding was obtained.
This experiment was performed in a 384-well plate with a total reaction volume of 20 μL. Compounds were diluted to different concentrations (10 μM or 1 μM starting, 3-fold dilution, 11 doses) using assay buffer Binding Domain diluent buffer (Cisbio #62DLBDDF), then PD-L1-His protein (19 to 238 amino acids) (Abcam #ab167713) was diluted to 10 nM with assay buffer, and PD-1-Fc protein (25 to 167 amino acids) (R&D #1086-PD) was diluted to 20 nM with assay buffer; the compound, PD-L1 protein and PD-1 protein were added to a 384-well plate respectively, and the total volume was 10 μL, then centrifuged at 1000 rpm for 1 minute to mix well, and incubated for 60 minutes at room temperature. Then 10 μL of a mixed solution of MAb Anti-6HIS Eu cryptate Gold (Cisbio #61HI2KLA) and PAb Anti Human IgG-XL665 (Cisbio #61HFCXLB) diluted by HTRF Detection buffer was added to each well, and centrifuged at 1000 rpm for 1 minute to mix well. The reaction was carried out at room temperature for 3 hours or at 4° C. overnight, then a microplate reader (BioTek Synergy H1) was put into for reading; the excitation wavelength was 340 nm, and the emission wavelengths were 620 nm and 665 nm.
The ratio of fluorescence readings at 620 nm and 665 nm (665 nm/620 nm) was calculated, and the inhibition rate was calculated.

Each structure is given as a SMILES string. pIC50: −log10 of the molar value.

T2 sequence (Q9NZQ7 19-238): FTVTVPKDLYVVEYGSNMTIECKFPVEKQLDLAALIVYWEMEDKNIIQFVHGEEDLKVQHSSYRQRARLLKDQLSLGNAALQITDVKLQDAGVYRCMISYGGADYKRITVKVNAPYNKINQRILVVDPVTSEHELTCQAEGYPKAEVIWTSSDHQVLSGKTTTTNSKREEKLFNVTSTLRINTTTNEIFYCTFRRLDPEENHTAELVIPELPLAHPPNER
T1 sequence (Q9NZQ7 19-290): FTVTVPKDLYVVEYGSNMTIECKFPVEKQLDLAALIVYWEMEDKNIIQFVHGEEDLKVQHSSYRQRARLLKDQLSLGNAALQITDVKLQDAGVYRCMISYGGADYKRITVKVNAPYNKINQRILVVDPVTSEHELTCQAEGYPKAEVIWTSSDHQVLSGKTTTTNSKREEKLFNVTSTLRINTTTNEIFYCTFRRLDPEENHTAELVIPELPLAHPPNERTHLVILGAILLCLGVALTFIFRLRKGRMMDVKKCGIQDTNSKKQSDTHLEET

As to `COc1cc(NCc2cnc(C(=O)Nc3cccc(-c4cccc(NC(=O)c5nc6c(n5C)CCN(C)C6)c4Cl)c3C)cc2OC)ccn1` [Embodiment 1, N-(2-Chloro-3′-(4-methoxy-5-(((2-methoxypyridin-4-yl)amino)methyl)picolinamido)-2′-methyl-[1,1′-biphenyl]-3-yl)-1,5-dimethyl-4,5,6,7-tetrahydro-1H-imidazo[4,5-c]pyridine-2-carboxamide], the Emax in assay [1] is 88%. Further, the pIC50 is 8.47 in assay [1] and 8.16 at human PD-1/PD-L1 binding. `COc1cc(NCc2cnc(C(=O)Nc3cccc(-c4cccc(NC(=O)c5nc6c(n5C)CCN(C)C6)c4Cl)c3Cl)cc2OC)ccn1` [Embodiment 2, N-(2,2′-Dichloro-3′-(4-methoxy-5-(((2-methoxypyridin-4-yl)amino)methyl)picolinamido)-[1,1′-biphenyl]-3-yl)-1,5-dimethyl-4,5,6,7-tetrahydro-1H-imidazo[4,5-c]pyridine-2-carboxamide]: in assay [1], the Emax turned out to be 89% and the pIC50 was 8.34. Also, the pIC50 at human PD-1/PD-L1 binding was 8.30.

Consider `COc1cc(C(=O)Nc2cccc(-c3cccc(NC(=O)c4nc5c(n4C)CCN(C)C5)c3Cl)c2C)ncc1CNc1cc(C)ccn1` [Embodiment 11, N-(2-Chloro-3′-(4-methoxy-5-(((4-methylpyridin-2-yl)amino)methyl)picolinamido)-2′-methyl-[1,1′-biphenyl]-3-yl)-1,5-dimethyl-4,5,6,7-tetrahydro-1H-imidazo[4,5-c]pyridine-2-carboxamide], for which the Emax in assay [1] came to 85%. Also, the figures for the pIC50 (in assay [1]; at human PD-1/PD-L1 binding) were 8.09 and 8.29, respectively. Consider `CCN1CCc2c(nc(C(=O)Nc3cccc(-c4cccc(NC(=O)c5cc(OC)c(CO)cn5)c4C)c3Cl)n2C)C1` [Embodiment 88, N-(2-Chloro-3′-(5-(hydroxymethyl)-4-methoxypicolinamido)-2′-methyl-[1,1′-biphenyl]-3-yl)-5-ethyl-1-methyl-4,5,6,7-tetrahydro-1H-imidazo[4,5-c]pyridine-2-carboxamide], for which the pIC50 at human PD-1/PD-L1 binding was 8.05. `COc1cc(C(=O)Nc2cccc(-c3cccc(NC(=O)c4nc5c(n4C)CCN(C)C5)c3Cl)c2C)ncc1CN[C@@H]1CCNC1=O` [Embodiment 97, (R)—N-(2-Chloro-3′-(4-methoxy-5-(((2-carbonylpyrrolidin-3-yl)amino)methyl)picolinamido)-2′-methyl-[1,1′-biphenyl]-3-yl)-1,5-dimethyl-4,5,6,7-tetrahydro-1H-imidazo[4,5-c]pyridine-2-carboxamide]: the pIC50 at human PD-1/PD-L1 binding was 8.30.

On to `COc1cc(C(=O)Nc2cccc(-c3cccc(NC(=O)c4nc5c(n4C)CCN(C)C5)c3Cl)c2C)ncc1CNC1CN(C(C)=O)C1` [Embodiment 100, N-(3′-(5-(((1-Acetylazetidin-3-yl)amino)methyl)-4-methoxypicolinamido)-2-chloro-2′-methyl-[1,1′-biphenyl]-3-yl)-1,5-dimethyl-4,5,6,7-tetrahydro-1H-imidazo[4,5-c]pyridine-2-carboxamide], for which the pIC50 on human PD-1/PD-L1 binding was 8.22. Take `COc1cc(C(=O)Nc2cccc(-c3cccc(NC(=O)c4nc5c(n4C)CCN(C)C5)c3Cl)c2C)ncc1CN1CC2(COC2)CC1=O` [Embodiment 104, N-(2-Chloro-3′-(4-methoxy-5-((7-carbonyl-2-oxa-6-azaspiro[3.4]octan-6-yl)methyl)picolinamido)-2′-methyl-[1,1′-biphenyl]-3-yl)-1,5-dimethyl-4,5,6,7-tetrahydro-1H-imidazo[4,5-c]pyridine-2-carboxamide]: the pIC50 at human PD-1/PD-L1 binding was 8.04. For `Cc1nccc(NCc2ccc(C(=O)Nc3cccc(-c4cccc(NC(=O)c5nc6c(n5C)CCN(C)C6)c4Cl)c3C)nc2)c1F` [Embodiment 105, N-(2-Chloro-3′-(5-(((3-fluoro-2-methylpyridin-4-yl)amino)methyl)picolinamido)-2′-methyl-[1,1′-biphenyl]-3-yl)-1,5-dimethyl-4,5,6,7-tetrahydro-1H-imidazo[4,5-c]pyridine-2-carboxamide], on human PD-1/PD-L1 binding, the pIC50 was 8.07. Still for that read-out and setting: to `Cc1c(NC(=O)c2ccc(CN3CC[C@@H](F)C3)cn2)cccc1-c1cccc(NC(=O)c2nc3c(n2C)CCN(C)C3)c1Cl` [Embodiment 106, (R)—N-(2-Chloro-3′-(5-((3-fluoropyrrolidin-1-yl)methyl)picolinamido)-2′-methyl-[1,1′-biphenyl]-3-yl)-1,5-dimethyl-4,5,6,7-tetrahydro-1H-imidazo[4,5-c]pyridine-2-carboxamide] belongs 8.19. The same measure, in the same setting: to `COc1cc(CN2CC(F)C2)cnc1C(=O)Nc1cccc(-c2cccc(NC(=O)c3nc4c(n3C)CCN(C)C4)c2Cl)c1C` [Embodiment 108, N-(2-Chloro-3′-(5-((3-fluoroazetidin-1-yl)methyl)-3-methoxypicolinamido)-2′-methyl-[1,1′-biphenyl]-3-yl)-1,5-dimethyl-4,5,6,7-tetrahydro-1H-imidazo[4,5-c]pyridine-2-carboxamide] belongs 8.08. With `COc1cc(CN[C@@H]2CCOC[C@@H]2F)cnc1C(=O)Nc1cccc(-c2cccc(NC(=O)c3nc4c(n3C)CCN(C)C4)c2Cl)c1C` [Embodiment 109, N-(2-Chloro-3′-(5-((((3R,4R)-3-fluorotetrahydro-2H-pyran-4-yl)amino)methyl)-3-methoxypicolinamido)-2′-methyl-[1,1′-biphenyl]-3-yl)-1,5-dimethyl-4,5,6,7-tetrahydro-1H-imidazo[4,5-c]pyridine-2-carboxamide], the pIC50 on human PD-1/PD-L1 binding is 8.33.

With `CNC(=O)CNCc1ccc(-c2cccc(-c3cccc(NC(=O)c4nc5c(n4C)CCN(C)C5)c3Cl)c2Cl)nc1OC` [Embodiment 140, N-(2,2′-Dichloro-3′-(6-methoxy-5-(((2-(methylamino)-2-carbonylethyl)amino)methyl)pyridin-2-yl)-[1,1′-biphenyl]-3-yl)-1,5-dimethyl-4,5,6,7-tetrahydro-1H-imidazo[4,5-c]pyridine-2-carboxamide], the pIC50 on human PD-1/PD-L1 binding is 8.04. Turning to `COc1cc(-c2cccc(-c3cccc(NC(=O)c4nc5c(n4C)CCN(C)C5)c3Cl)c2Cl)cnc1CN1CC(F)C1` [Embodiment 163, N-(2,2′-Dichloro-3′-(6-((3-fluoroazetidin-1-yl)methyl)-5-methoxypyridin-3-yl)-[1,1′-biphenyl]-3-yl)-1,5-dimethyl-4,5,6,7-tetrahydro-1H-imidazo[4,5-c]pyridine-2-carboxamide], the pIC50 at human PD-1/PD-L1 binding is 8.11.

`COc1nc(OCc2cccc(-c3cccc(NC(=O)c4nc5c(n4C)CCN(C)C5)c3Cl)c2C)nc(OC)c1CN1CCCC[C@H]1C(=O)O` [Embodiment 170, (S)-1-((2-((2′-Chloro-3′-(1,5-dimethyl-4,5,6,7-tetrahydro-1H-imidazo[4,5-c]pyridine-2-carboxamido)-2-methyl-[1,1′-biphenyl]-3-yl)methoxy)-4,6-dimethoxypyrimidin-5-yl)methyl)piperidine-2-carboxylic Acid]: on human PD-1/PD-L1 binding, the pIC50 is 8.39.
